Measurements reported in patent US10858316B2, “Small molecule inhibitors of the MCL-1 oncoprotein and uses thereof” (University of Maryland, Baltimore, priority 2015, dated 2020).
Like-named read-outs stand apart in the source and are kept apart here.

Target: Mcl-1 (Homo sapiens (Human), UniProt Q07820)
Assay: Fluorescence polarization competition assay (FPCA), Mcl-1 / FITC-Bak BH3 peptide
Format: binding
Conditions: for Mcl-1 Exp ΔG: ΔG=−RTlnKi from experimental Ki
Text: The tagged protein was initially purified from the crude cell lysate by immobilized metal affinity chromatography (IMAC) chromatography (GE Healthcare Life Sciences), and after dialysis to remove the imidazole the affinity tag was cleaved using PreScission Protease (GE Healthcare Life Sciences). A Sephacryl S-200 size exclusion column was used as a final purification step before the protein was concentrated with a 10,000 MWCO centifugal filter concentrator (Millipore).
Fluorescence polarization experiments were conducted using a BMG PHERAstar FS multimode microplate reader equipped with two PMTs for simultaneous measurements of the perpendicular and parallel fluorescence emission. The assays were performed in black polypropylene 384-well microplate (Costar) with a final volume of 20 microliter. […] Regression analysis was carried out using Origin (OriginLab, Northampton, Mass.) to fit the data to the Hill equation (1) to determine the initial binding affinity (KD) and the IC50 in the FPCA. For the fluorescence polarization competition titrations, an equation derived by Nikolovska-Coleska et al. was used to calculate the Ki from the IC50 data.
The target molecules were assayed for their abilities to disrupt the Mcl-1-Bak-BH3 PPI in a fluorescence polarization competition (FPC) assay with Mcl-1 and FITC-labeled Bak-BH3 peptide. Further details on the FPC assay can be found in the Supporting Information.

[1] = FPCA with FITC-Bak, Ki from IC50 by Nikolovska-Coleska equation, read-out: Mcl-1 Ki
[2] = fluorescence polarization competition assay, read-out: Ki (μM) Mcl-1

Chain of Mcl-1 (Q07820 172-327): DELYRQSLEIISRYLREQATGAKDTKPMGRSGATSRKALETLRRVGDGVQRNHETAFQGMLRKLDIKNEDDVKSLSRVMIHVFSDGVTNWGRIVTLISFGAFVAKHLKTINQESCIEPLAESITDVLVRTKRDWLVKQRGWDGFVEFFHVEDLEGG

Compound | Mcl-1 Exp ΔG | Ki [1] | other results
O=C(O)C1Cc2ccccc2N(S(=O)(=O)c2ccc(Br)cc2)C1 (racemic) [SF-5-135, (±)-1-((4-bromophenyl)sulfonyl)-1,2,3,4-tetrahydroquinoline-3-carboxylic acid] |  |  | Ki (read-out: Mcl-1 Ki): > 1000 µM
O=C(O)c1ccc2c(c1)CCCN2S(=O)(=O)c1ccc2ccccc2c1 [LC-3-006, 1-(naphthalen-2-ylsulfonyl)-1,2,3,4-tetrahydroquinoline-6-carboxylic acid] |  | 22 µM | 
O=C(O)c1cc(S(=O)(=O)Nc2ccc(Cl)cc2)c2ccccc2c1O [Compound 3v, 4-(N-(4-Chlorophenyl)sulfamoyl)-1-hydroxy-2-naphthoic Acid] |  | 1.91 ± 0.26 µM | 
O=C(O)C1Cc2ccccc2N(S(=O)(=O)c2ccc3ccccc3c2)C1 (racemic) [±-8e] |  | 59 ± 6 µM | 
Cc1ccc(S(=O)(=O)N(CC(C)C)c2ccc(C(=O)O)c(O)c2)cc1 [4jc117-2 13af] |  | 61.2 ± 4.49 µM | 
O=C(O)c1cc(S(=O)(=O)Nc2ccc(Oc3ccccc3)cc2)c2ccccc2c1O [Compound 3bb, 1-Hydroxy-4-(N-(4-phenoxyphenyl)sulfamoyl)-2-naphthoic Acid] |  | 1.15 ± 0.28 µM | 
O=C(O)c1cc(S(=O)(=O)N2CCCCC2)c2ccccc2c1O [Compound 3i, 1-Hydroxy-4-(piperidin-1-ylsulfonyl)-2-naphthoic Acid] |  | 2.95 ± 0.43 µM | 
Cc1cc(C)cc(Oc2ccc(S(=O)(=O)N(CC(C)C)c3ccc(C(=O)O)c(O)c3)cc2)c1 [LC-4-100 13ai] |  | 2.96 ± 0.286 µM | 
O=C(O)c1cc(S(=O)(=O)Nc2ccccc2-c2ccccc2)c2ccccc2c1O [Compound 3r, 4-(N-([1,1′-Biphenyl]-2-yl)sulfamoyl)-1-hydroxy-2-naphthoic Acid] |  | 8.5 ± 1.34 µM | 
CC(C)CN(c1cccc(C(=O)O)c1)S(=O)(=O)c1ccc(F)cc1 [4jc177-6 18ad] |  | > 500 µM | 
CC(C)CN(c1ccc(C(=O)O)cc1)S(=O)(=O)c1ccc(-c2ccccc2)cc1 [LC-3-030 8c] |  | 16.7 ± 2.28 µM | Ki (FPCA with FITC-Bak, Ki from IC50 by Nikolovska-Coleska equation, listed as 8c, read-out: Mcl-1 Ki): 16.7 µM
CC(C)CN(c1ccc(C(=O)NO)c(O)c1)S(=O)(=O)c1ccc(Oc2ccccc2)cc1 [LC-5-061 25] |  | 71 ± 5.8 µM | 
O=C(O)c1cc(S(=O)(=O)Nc2ccccc2Br)c2ccccc2c1O [3m; TA-1-019] | -7.04 kcal/mol |  | 
O=C(O)c1cc(S(=O)(=O)N2CCN(c3ccccc3)CC2)c2ccccc2c1O [3j; EW-2-051] | -7.29 kcal/mol |  | 
O=C(O)c1cc(S(=O)(=O)NCc2ccccc2)c2ccccc2c1O [Compound 3c, 4-(N-Benzylsulfamoyl)-1-hydroxy-2-naphthoic Acid] |  | 56.3 ± 2.1 µM | 
Cc1cc(Oc2ccc(S(=O)(=O)N(CC(C)C)c3ccc(C(=O)O)cc3)cc2)cc(C)c1Cl [LC-3-035, 4-(4-(4-chloro-3,5-dimethylphenoxy)-N-isobutylphenylsulfonamido)benzoic acid] |  |  | Ki [2]: 0.261 ± 0.558 µM
CC(C)CN(c1ccc(C(=O)O)c(O)c1)S(=O)(=O)c1ccc(Br)cc1 [LC-5-012 13ae] |  | 17 ± 1.5 µM | 
O=C(O)c1cc(S(=O)(=O)Nc2cccc(-c3ccccc3)c2)c2ccccc2c1O [Compound 3s, 4-(N-([1,1′-Biphenyl]-3-yl)sulfamoyl)-1-hydroxy-2-naphthoic Acid] |  | 1.88 ± 0.62 µM | 

Compound | Mcl-1 Exp ΔG | Ki [1] | other results
O=C(O)C1Cc2ccccc2N(S(=O)(=O)c2ccccc2)C1 (racemic) [±-8a] |  | 193 ± 24 µM | Ki (FPC assay, read-out: Mcl-1 Ki): 193 µM
CC(C)CN(c1ccc(C(=O)O)c(O)c1)S(=O)(=O)c1ccc2ccccc2c1 [Compound 4jc117-3, 2-hydroxy-4-(N-isobutylnaphthalene-2-sulfonamido)benzoic acid] |  |  | Ki [2]: 60.3 ± 24.4 µM
N#Cc1cccc(NS(=O)(=O)c2cc(C(=O)O)c(O)c3ccccc23)c1 [3ad; 5JC75-2] | -6.23 kcal/mol |  | 
COC(=O)C1Cc2ccccc2N(S(=O)(=O)c2ccc(Oc3cc(C)c(Cl)c(C)c3)cc2)C1 (racemic) [±-9] |  | > 500 µM | Binding affinity to Mcl-1 in vitro (FPCA): no appreciable affinity
O=C(O)c1ccc(N(C2CCCC2)S(=O)(=O)c2ccc3ccccc3c2)cc1O [LC-4-083 13ba] |  | 24.7 ± 9.45 µM | 
O=C(O)c1cc(S(=O)(=O)Nc2ccc(Oc3ccc(Cl)cc3)cc2)c2ccccc2c1O [Compound 3bh, 4-(N-(4-(4-Chlorophenoxy)phenyl)sulfamoyl)-1-hydroxy-2-naphthoic Acid] |  | 0.173 µM | 
NS(=O)(=O)c1cc(C(=O)O)c(O)c2ccccc12 [3b; SF-5-294] | -5.46 kcal/mol |  | 
O=C(O)C1CNc2ccccc2C1 (racemic) [±-6, 1,2,3,4-tetrahydroquinoline-3-carboxylic acid] |  | > 500 µM | Ki (FPC assay, read-out: Mcl-1 Ki): > 500 µM
COc1cc(N(CC(C)C)S(=O)(=O)c2ccc(Oc3ccccc3)cc2)ccc1C(=O)O [LC-5-106 19] |  | 107 ± 31.1 µM | 
O=C(O)c1ccc2c(c1)CCCN2S(=O)(=O)c1ccc(Br)cc1 [LC-3-004, 1-((4-bromophenyl)sulfonyl)-1,2,3,4-tetrahydroquinoline-6-carboxylic acid] |  | 203 µM | 
O=C(O)C1Cc2ccccc2N(S(=O)(=O)c2ccc(Br)cc2)C1 (racemic) [±-8b] |  | 117 ± 19 µM | Ki (FPC assay, read-out: Mcl-1 Ki): 117 µM
O=C(O)c1cc(S(=O)(=O)Nc2ccc(Oc3ccccc3)cc2)c2ccccc2c1O [3bb; SF-5-299] | -8.10 kcal/mol |  | 
O=C(O)C1Cc2ccccc2N(S(=O)(=O)c2ccc(-c3ccccc3)cc2)C1 (racemic) [±-8d] |  | > 500 µM | Ki (FPC assay, read-out: Mcl-1 Ki): > 500 µM
Cc1cc(Oc2ccc(S(=O)(=O)N3CCCc4cc(C(=O)O)ccc43)cc2)cc(C)c1Cl [LC-3-012, 1-((4-(4-chloro-3,5-dimethylphenoxy)phenyl)sulfonyl)-1,2,3,4-tetrahydroquinoline-6-carboxylic acid] |  | 0.332 µM | 
O=C(O)c1cc(S(=O)(=O)Nc2cccc(-c3ccccc3)c2)c2ccccc2c1O [3s; LC-3-192] | -7.81 kcal/mol |  | 
O=C(O)c1ccc2c(c1)CCCN2S(=O)(=O)c1ccc(F)cc1 [LC-3-010, 1-((4-fluorophenyl)sulfonyl)-1,2,3,4-tetrahydroquinoline-6-carboxylic acid] |  | > 1000 µM | 
CC(C)CN(c1ccc(C(=O)O)cc1)S(=O)(=O)c1ccc(F)cc1 [LC-3-025 8d] |  | > 500 µM | 

Further lines, with some results ahead:

Mcl-1 Exp ΔG | Compound | Ki [1] | other results
-7.54 kcal/mol | O=C(O)c1cc(S(=O)(=O)N2CCCCC2)c2ccccc2c1O [3i; SF-5-263] |  | 
-5.42 kcal/mol | O=C(O)c1cc(S(=O)(=O)Nc2ccccc2)c2ccccc2c1O [3l; SF-5-311] |  | 
>-4.50 kcal/mol | COC(=O)c1cc(S(=O)(=O)N(CC(C)C)c2ccc(Br)cc2)c2ccccc2c1O [Compound 3cb, Methyl 4-(N-(4-bromophenyl)-N-isobutylsulfamoyl)-1-hydroxy-2-naphthoate] | > 500 µM | 
-6.91 kcal/mol | O=C(O)c1cc(S(=O)(=O)Nc2ccccc2-c2ccccc2)c2ccccc2c1O [3r; LC-4-002] |  | 
-6.31 kcal/mol | COc1c(C(=O)O)cc(S(=O)(=O)N(CC(C)C)c2ccc(Br)cc2)c2ccccc12 [Compound 3cd, 4-(N-(4-Bromophenyl)-N-isobutylsulfamoyl)-1-methoxy-2-naphthoic Acid] | 23.4 ± 2.6 µM | 
-6.26 kcal/mol | CN(C)S(=O)(=O)c1cc(C(=O)O)c(O)c2ccccc12 [3h; SF-5-295] |  | 
-7.45 kcal/mol | O=C(O)c1cc(S(=O)(=O)N2CCN(Cc3ccccc3)CC2)c2ccccc2c1O [3k; SF-5-307] |  | 
-5.79 kcal/mol | O=C(O)c1cc(S(=O)(=O)NCc2ccccc2)c2ccccc2c1O [3c; SF-5-311] |  | 
